Earlier results as cited in patent US20090202626A1, “TREATMENT OF BLADDER DISEASES WITH A TLR7 ACTIVATOR” (priority 2008, published 2009).

Columns and labels:
[1] = tested on: orthotopic bladder cancer
superficial skin cancer = conditions: in vivo

CC(C)Cn1cnc2c(N)nc3ccccc3c21 [Imiquimod, imiquimod]
mice that developed tumors ([1]; 100 μg once weekly, placebo 11 of 13 mice (85%)): 3 of 14
anti-tumor activity ([1]; orthotopic bladder cancer mouse model): potent anti-tumor activity
effect on FCB bladder tumor (FCB bladder tumor; mice): cured mice
effect on chemically induced bladder cancer (FCB bladder tumor; mouse, in vivo): inhibited
efficacy in superficial skin cancer (superficial skin cancer): demonstrated efficacy
